Results reported in patent US9187424B1, “Aryl dihydropyridinones and piperidinone MGAT2 inhibitors” (Bristol-Myers Squibb Company, priority 2011, dated 2015).

Target: Human MGAT-2 (Homo sapiens (Human), UniProt Q3SYC2)
Assay: MGAT LCMS Assay (human MGAT-2);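 further: diolein product quantified by LC/MS with positive APCI, expressed as peak area ratio versus an internal standard, and this ratio used to derive IC50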
Assay type: biochemical
Conditions: human MGAT-2 membranes expressed in Sf9 cells; 2-oleoylglycerol and oleoyl-Coenzyme A; read-out: h-MGAT2 IC50 (nM) LCMS Assay

Human MGAT-2, sequence (Q3SYC2 whole entry): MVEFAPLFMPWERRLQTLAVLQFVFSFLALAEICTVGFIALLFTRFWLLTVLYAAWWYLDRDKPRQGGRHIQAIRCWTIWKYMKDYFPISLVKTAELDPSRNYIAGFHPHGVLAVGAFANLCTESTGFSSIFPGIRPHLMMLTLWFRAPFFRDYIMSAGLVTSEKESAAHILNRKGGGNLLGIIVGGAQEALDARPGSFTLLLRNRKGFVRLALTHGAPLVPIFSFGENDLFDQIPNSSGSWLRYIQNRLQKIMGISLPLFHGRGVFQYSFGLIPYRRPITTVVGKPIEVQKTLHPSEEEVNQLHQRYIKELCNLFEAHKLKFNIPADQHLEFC

Row | IC50 [nM] | SMILES
1 | 374 | Cc1ccc(C2=C(c3nn[nH]n3)C(=O)NC(c3cnn(CCCCC(F)(F)F)c3)(C(F)(F)F)C2)cc1 (stereo not drawn) [Example 12, 3-(2H-Tetrazol-5-yl)-4-p-tolyl-6-(trifluoromethyl)-6-(1-(5,5,5-trifluoropentyl)-1H-pyrazol-4-yl)-5,6-dihydropyridin-2(1H)-one]
2 | 1220 | Cc1ccc(C2=C(C(=O)Nc3cn(C)cn3)C(=O)NC(c3ccc(OCCCC(F)(F)F)cc3)(C(F)(F)F)C2)cc1 (stereo not drawn) [Example 87]
3 | 136 | CCOc1ccc(C2=C(c3nn[nH]n3)C(=O)NC(c3ccc(OCCCC(F)(F)F)cc3)(C(F)(F)F)C2)cc1 (stereo not drawn) [Example 92]
4 | 1430 | Cc1cccc(C2=C(c3nn[nH]n3)C(=O)NC(c3ccc(OCCCC(F)(F)F)cc3)(C(F)(F)F)C2)c1 (stereo not drawn) [Example 96]
5 | 1200 | O=C1NC(c2ccc(OCCCC(F)(F)F)cc2)(C(F)(F)F)CC(c2ccccc2)=C1c1nn[nH]n1 (stereo not drawn) [Example 97]
6 | 795 | O=C1NC(c2ccc(OCCCC(F)(F)F)cc2)(C(F)(F)F)CC(c2cccc(Cl)c2)=C1c1nn[nH]n1 (stereo not drawn) [Example 99]
7 | 1580 | COc1cccc(C2=C(c3nn[nH]n3)C(=O)NC(c3ccc(OCCCC(F)(F)F)cc3)(C(F)(F)F)C2)c1 (stereo not drawn) [Example 100]
8 | 1090 | COc1ccc(NC(=O)C2=C(c3ccc(C)cc3)CC(C)(C(=O)NCCCC(F)(F)F)NC2=O)cc1 (stereo not drawn) [Example 102, N^5-(4-Methoxyphenyl)-2-methyl-6-oxo-4-p-tolyl-N^2-(4,4,4-trifluorobutyl)-1,2,3,6-tetrahydropyridine-2,5-dicarboxamide]
9 | 189 | CCCCCCc1cnc(C2(C)CC(c3ccc(C)cc3)=C(C#N)C(=O)N2)o1 (stereo not drawn) [Example 108, 6-(5-Hexyloxazol-2-yl)-6-methyl-2-oxo-4-p-tolyl-1,2,5,6-tetrahydropyridine-3-carbonitrile]
10 | 39 | CCCCCCCn1ccc(C2(C)CC(c3ccc(C)cc3)=C(C#N)C(=O)N2)n1 (stereo not drawn) [Example 109, 6-(1-Heptyl-1H-pyrazol-3-yl)-6-methyl-2-oxo-4-p-tolyl-1,2,5,6-tetrahydropyridine-3-carbonitrile]
11 | 704 | Cc1ccc(C2=C(n3ccnc3)C(=O)NC(c3ccc(OCCCC(F)(F)F)cc3)(C(F)(F)F)C2)cc1 (stereo not drawn) [Example 114]
12 | 40 | Cc1ccc(C2=C(C(O)Nc3ccccc3)C(=O)NC(c3ccc(OCCCC(F)(F)F)cc3)(C(F)(F)F)C2)cc1 (stereo not drawn) [Example 115]
13 | 282 | Cc1ccc(C2=C(C(=O)Nc3nn[nH]n3)C(=O)NC(c3ccc(OCCC(F)(F)F)cc3)(C(F)(F)F)C2)cc1 (stereo not drawn) [Example 125]
14 | 328 | Cc1ccc(C2=C(C(=O)Nc3cccc(C)c3)C(=O)NC(c3ccc(OCCC(F)(F)F)cc3)(C(F)(F)F)C2)cc1 (stereo not drawn) [Example 128]
15 | 222 | Cc1ccc(NC(=O)C2=C(c3ccc(C)cc3)CC(c3ccc(OCCC(F)(F)F)cc3)(C(F)(F)F)NC2=O)cc1 (stereo not drawn) [Example 129]
16 | 1050 | Cc1ccc(C2=C(C(=O)Nc3cc(C)[nH]n3)C(=O)NC(c3ccc(OCCC(F)(F)F)cc3)(C(F)(F)F)C2)cc1 (stereo not drawn) [Example 131]
17 | 163 | Cc1ccc(C2=C(C(=O)Nn3cnc([N+](=O)[O-])n3)C(=O)NC(c3ccc(OCCC(F)(F)F)cc3)(C(F)(F)F)C2)cc1 (stereo not drawn) [Example 132]
18 | 168 | Cc1ccc(C2=C(C(=O)Nc3ccc(-c4nn[nH]n4)cc3)C(=O)NC(c3ccc(OCCC(F)(F)F)cc3)(C(F)(F)F)C2(F)F)cc1 (stereo not drawn) [Example 134]
19 | 778 | Cc1ccc(NC(=O)C2=C(c3ccc(C)cc3)C(F)(F)C(c3ccc(OCCC(F)(F)F)cc3)(C(F)(F)F)NC2=O)cc1 (stereo not drawn) [Example 135]
20 | 328 | Cc1ccc(C2=C(C(=O)Nc3nnc(C(F)(F)F)o3)C(=O)NC(c3ccc(OCCC(F)(F)F)cc3)(C(F)(F)F)C2)cc1 (stereo not drawn) [Example 136]
21 | 252 | Cc1ccc(C2=C(C(=O)Nc3ccccc3OC(F)(F)F)C(=O)NC(c3ccc(OCCC(F)(F)F)cc3)(C(F)(F)F)C2)cc1 (stereo not drawn) [Example 137]
22 | 5800 | COc1ccc(C2(C(F)(F)F)NC(=O)C(C#N)=C(c3ccc(C)cc3)C2(F)F)cc1 (stereo not drawn) [Example 138]
23 | 356 | COc1ccc(C2=C(c3ccc(C)cc3)C(F)(F)C(c3ccc(OCCCC(F)(F)F)cc3)(C(F)(F)F)NC2=O)cn1 (stereo not drawn) [Example 140]
24 | 459 | Cc1ccc(C2=C(C(=O)NC3CCCC3)C(=O)NC(c3ccc(OCCCC(F)(F)F)cc3)(C(F)(F)F)C2(F)F)cc1 (stereo not drawn) [Example 141]

Row | SMILES | IC50 [nM]
25 | COc1ccc(C2=C[C@](c3ccc(OCCCC(F)(F)F)cc3)(C(F)(F)F)NC(=O)C2(F)C#N)cc1 (single isomer, unassigned) [Example 15-2, 3-Fluoro-4-(4-methoxyphenyl)-2-oxo-6-(4-(4,4,4-trifluorobutoxyl)phenyl)-6-(trifluoromethyl)-1,2,3,6-tetrahydropyridine-3-carbonitrile] | 431
26 | COc1ccc(C2=C[C@@](c3ccc(OCCCC(F)(F)F)cc3)(C(F)(F)F)NC(=O)C2(F)C#N)cc1 (stereo in doubt) [Example 15-3, 3-Fluoro-4-(4-methoxyphenyl)-2-oxo-6-(4-(4,4,4-trifluorobutoxyl)phenyl)-6-(trifluoromethyl)-1,2,3,6-tetrahydropyridine-3-carbonitrile] | 756
27 | COc1ccc(C2=C[C@@](c3ccc(OCCCC(F)(F)F)cc3)(C(F)(F)F)NC(=O)C2(F)C#N)cc1 (stereo in doubt) [Example 15-4, 3-Fluoro-4-(4-methoxyphenyl)-2-oxo-6-(4-(4,4,4-trifluorobutoxyl)phenyl)-6-(trifluoromethyl)-1,2,3,6-tetrahydropyridine-3-carbonitrile] | 2050
28 | CCn1nnc(C2=C(c3ccc(C)cc3)CC(c3ccc(OCCCC(F)(F)F)cc3)(C(F)(F)F)NC2=O)n1 (stereo not drawn) [Example 9, 3-(2-Ethyl-2H-tetrazol-5-yl)-4-p-tolyl-6-(4-(4,4,4-trifluorobutoxyl)phenyl)-6-(trifluoromethyl)-5,6-dihydropyridin-2(1H)-one] | 121
29 | COc1ccc(C2=C(C#N)C(=O)NC(c3ccc(OCCCC(F)(F)F)cc3)(C(F)(F)F)C23CC3)cc1 (stereo not drawn) [Example 14, 8-(4-Methoxyphenyl)-6-oxo-4-(4-(4,4,4-trifluorobutoxyl)phenyl)-4-(trifluoro-methyl)-5-azaspiro[2.5]oct-7-ene-7-carbonitrile] | 2050
30 | Cc1ccc(C2=C(C(=O)Nc3ccc(C#N)cc3)C(=O)NC(c3ccc(OCCCC(F)(F)F)cc3)(C(F)(F)F)C2(F)F)cc1 (stereo not drawn) [Example 103, N-(4-Cyanophenyl)-5,5-difluoro-2-oxo-4-p-tolyl-6-(4-(4,4,4-trifluorobutoxyl)phenyl)-6-(trifluoromethyl)-1,2,5,6-tetrahydropyridine-3-carboxamide] | 645
31 | Cc1ccc(C2=C(N)C(=O)N[C@@](c3ccc(OCCCC(F)(F)F)cc3)(C(F)(F)F)C2)cc1 [Example 104, (S)-3-Amino-4-p-tolyl-6-(4-(4,4,4-trifluorobutoxy)phenyl)-6-(trifluoromethyl)-5,6-dihydropyridin-2(1H)-one] | 103
32 | Cc1ccc(C2=C(Oc3ccccc3)C(=O)N[C@@](c3ccc(OCCCC(F)(F)F)cc3)(C(F)(F)F)C2)cc1 [Example 106, (S)-3-Phenoxy-4-p-tolyl-6-(4-(4,4,4-trifluorobutoxy)phenyl)-6-(trifluoromethyl)-5,6-dihydropyridin-2(1H)-one] | 552
33 | CCCCOc1ccc(C2(C)CC(c3ccc(C)cc3)=C(C#N)C(=O)N2)cc1 (stereo not drawn) [Example 107, 6-(4-Butoxyphenyl)-6-methyl-2-oxo-4-p-tolyl-1,2,5,6-tetrahydropyridine-3-carbonitrile] | 93
